In ChEMBL document CHEMBL1201862, “PubChem BioAssay data set” (2004):
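Step 1: Grow cells in 96-well plates. Step 2: Expose to compound for 48 hours at 5 concentrations. Step 3: Interpolate endpoints linearly; if unreached, use highest concentration. The concentration for 50% growth inhibition is given as GI50.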 Calls of active or inactive are those of the source. Rule as the data show it: active = GI50 up to about 1.1 µM and inactive = higher.

Assays:
Assay in all cases: inhibition of tumour cell growth, NCI panel, 48 h
HOP-92 = tested on: HOP-92
HT-29 = tested on: HT-29
NCI-H460 = tested on: NCI-H460
OVCAR-3 = tested on: OVCAR-3
LOX IMVI = tested on: LOX IMVI
Malme-3M = tested on: Malme-3M
KM12 = tested on: KM12
786-0 = tested on: 786-0
OVCAR-8 = tested on: OVCAR-8
MOLT-4 = tested on: MOLT-4
DMS-114 = tested on: DMS-114
U-251 = tested on: U-251
KM-20L2 = tested on: KM-20L2
SK-MEL-28 = tested on: SK-MEL-28
LXFL 529 = tested on: LXFL 529
SF-295 = tested on: SF-295
M14 = tested on: M14
UO-31 = tested on: UO-31
SW-620 = tested on: SW-620
COLO 205 = tested on: COLO 205
A549 = tested on: A549
SK-MEL-2 = tested on: SK-MEL-2
ACHN = tested on: ACHN
M19-MEL = tested on: M19-MEL
HL-60 = tested on: HL-60
NCI-H23 = tested on: NCI-H23
CCRF-CEM = tested on: CCRF-CEM
K562 = tested on: K562
NCI-H226 = tested on: NCI-H226
DLD-1 = tested on: DLD-1
SF-268 = tested on: SF-268
SF-539 = tested on: SF-539
SR = tested on: SR
HOP-62 = tested on: HOP-62
DMS-273 = tested on: DMS-273
HCC 2998 = tested on: HCC 2998
SN12C = tested on: SN12C
EKVX = tested on: EKVX
XF498 = tested on: XF498
RPMI-8226 = tested on: RPMI-8226
UACC-257 = tested on: UACC-257
SK-OV-3 = tested on: SK-OV-3
SNB-19 = tested on: SNB-19
NCI-H522 = tested on: NCI-H522
SNB-78 = tested on: SNB-78
SNB-75 = tested on: SNB-75
UACC-62 = tested on: UACC-62
IGROV-1 = tested on: IGROV-1
RXF 393 = tested on: RXF 393
HCT-116 = tested on: HCT-116
TK-10 = tested on: TK-10

Measured: GI50

Cc1ccc(/C=N\NC2c3cc(Cl)ccc3Nc3nc(O)nc(C)c32)cc1 (stereo unspecified)
inactive: HOP-92 43.3 µM | HT-29 > 100 µM | NCI-H460 > 100 µM | OVCAR-3 > 100 µM | LOX IMVI > 100 µM | Malme-3M > 100 µM | KM12 > 100 µM | 786-0 > 100 µM | OVCAR-8 72.6 µM | MOLT-4 4.92 µM | DMS-114 > 100 µM | U-251 > 100 µM | KM-20L2 > 100 µM | SK-MEL-28 > 100 µM | LXFL 529 > 100 µM | SF-295 > 100 µM | M14 57.1 µM | UO-31 > 100 µM | SW-620 67.8 µM | COLO 205 58.1 µM | A549 > 100 µM | SK-MEL-2 > 100 µM | ACHN > 100 µM | M19-MEL > 100 µM | HL-60 43.3 µM | NCI-H23 > 100 µM | CCRF-CEM 96.6 µM | K562 56.5 µM | NCI-H226 > 100 µM | DLD-1 > 100 µM | SF-268 > 100 µM | SF-539 > 100 µM | SR 7.29 µM | HOP-62 > 100 µM | DMS-273 91.4 µM | HCC 2998 95.7 µM | SN12C 65.3 µM | EKVX > 100 µM | XF498 > 100 µM | RPMI-8226 45 µM | UACC-257 88.9 µM | SK-OV-3 > 100 µM | SNB-19 > 100 µM | NCI-H522 > 100 µM | SNB-78 > 100 µM | SNB-75 > 100 µM | UACC-62 > 100 µM | IGROV-1 84.3 µM | RXF 393 > 100 µM | HCT-116 46.8 µM | TK-10 > 100 µM
